Experimental data from patent US10670605B2, “Cysteine reactive probes and uses thereof” (The Scripps Research Institute, priority 2015, dated 2020).

Tests used:
Experiment in all cases: Competitive isoTOP-ABPP, cell lysates
Format in all cases: binding
[1] = biological target: T1, ACAT1 C196 (P24752) (Homo sapiens, UniProt P24752); conditions: for isoTOP-ABPP reactivity profile ratio, P24752_C196: 500 μm; for isoTOP-ABPP ratio, P24752_C196: 500 μM, invitro
T1 sequence (P24752 34-427): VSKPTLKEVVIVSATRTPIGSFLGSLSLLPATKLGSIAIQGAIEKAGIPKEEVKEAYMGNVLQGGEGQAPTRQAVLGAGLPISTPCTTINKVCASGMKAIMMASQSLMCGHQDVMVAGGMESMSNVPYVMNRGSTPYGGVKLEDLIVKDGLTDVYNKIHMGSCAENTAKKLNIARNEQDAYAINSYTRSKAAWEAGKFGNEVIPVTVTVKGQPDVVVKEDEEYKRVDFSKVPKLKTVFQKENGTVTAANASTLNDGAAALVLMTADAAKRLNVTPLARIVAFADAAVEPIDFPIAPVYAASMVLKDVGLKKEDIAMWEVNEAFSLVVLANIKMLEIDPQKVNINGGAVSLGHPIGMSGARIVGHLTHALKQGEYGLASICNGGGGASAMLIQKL

[2] = biological target: T2, UBE2S C118 (Q16763) (Homo sapiens, UniProt Q16763); conditions: for isoTOP-ABPP ratio (reactivity profile), Q16763_C118: 500 μm in-vitro ramos; for isoTOP-ABPP reactivity profile ratio, Q16763_C118: 500 μm
T2 sequence (Q16763 1-222): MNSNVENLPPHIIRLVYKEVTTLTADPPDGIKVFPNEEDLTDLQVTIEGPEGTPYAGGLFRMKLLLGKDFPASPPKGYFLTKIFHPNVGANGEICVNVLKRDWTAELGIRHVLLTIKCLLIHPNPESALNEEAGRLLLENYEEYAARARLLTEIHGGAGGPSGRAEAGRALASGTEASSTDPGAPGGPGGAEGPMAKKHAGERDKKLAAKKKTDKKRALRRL

[3] = biological target: SMARCC2 C145 (Q8TAQ2) (Homo sapiens, UniProt Q8TAQ2); conditions: for isoTOP-ABPP ratio (reactivity profile), Q8TAQ2_C145: 500 μm in-vitro ramos
Chain of SMARCC2 C145 (Q8TAQ2) (Q8TAQ2 whole entry): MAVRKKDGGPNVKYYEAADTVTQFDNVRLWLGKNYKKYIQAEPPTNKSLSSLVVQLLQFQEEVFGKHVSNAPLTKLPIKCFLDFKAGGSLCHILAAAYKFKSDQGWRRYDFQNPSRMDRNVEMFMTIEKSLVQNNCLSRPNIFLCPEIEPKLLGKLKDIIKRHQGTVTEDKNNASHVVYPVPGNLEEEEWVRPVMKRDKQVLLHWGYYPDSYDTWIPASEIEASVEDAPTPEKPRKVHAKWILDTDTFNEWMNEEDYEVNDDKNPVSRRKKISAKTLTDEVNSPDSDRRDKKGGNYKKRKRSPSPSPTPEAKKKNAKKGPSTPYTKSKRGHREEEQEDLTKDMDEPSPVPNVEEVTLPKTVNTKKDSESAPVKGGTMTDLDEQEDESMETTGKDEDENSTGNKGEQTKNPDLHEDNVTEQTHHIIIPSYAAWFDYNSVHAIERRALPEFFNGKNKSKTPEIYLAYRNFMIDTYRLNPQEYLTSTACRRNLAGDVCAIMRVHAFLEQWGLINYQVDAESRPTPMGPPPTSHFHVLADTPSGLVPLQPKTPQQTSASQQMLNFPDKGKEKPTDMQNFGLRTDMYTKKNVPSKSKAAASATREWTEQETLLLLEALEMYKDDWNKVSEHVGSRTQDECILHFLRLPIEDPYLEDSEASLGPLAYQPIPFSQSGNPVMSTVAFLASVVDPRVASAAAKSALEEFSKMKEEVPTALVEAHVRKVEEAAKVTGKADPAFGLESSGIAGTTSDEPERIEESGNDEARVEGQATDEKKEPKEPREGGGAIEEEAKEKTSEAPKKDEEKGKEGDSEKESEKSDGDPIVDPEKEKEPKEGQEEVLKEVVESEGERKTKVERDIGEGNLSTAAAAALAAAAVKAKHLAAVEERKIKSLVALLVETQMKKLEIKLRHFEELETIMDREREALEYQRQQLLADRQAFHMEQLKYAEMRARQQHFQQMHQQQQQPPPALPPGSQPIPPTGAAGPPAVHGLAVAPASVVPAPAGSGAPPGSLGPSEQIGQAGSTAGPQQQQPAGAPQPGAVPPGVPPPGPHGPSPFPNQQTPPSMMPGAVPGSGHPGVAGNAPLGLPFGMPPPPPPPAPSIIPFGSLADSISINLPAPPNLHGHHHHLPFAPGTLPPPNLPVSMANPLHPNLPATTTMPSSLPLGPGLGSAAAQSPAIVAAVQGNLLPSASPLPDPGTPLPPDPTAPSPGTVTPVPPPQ

[4] = biological target: T3, UCHL3 C95 (P15374) (Homo sapiens, UniProt P15374); conditions: for isoTOP-ABPP ratio (reactivity profile), P15374_C95: 500 μm in-vitro ramos; for isoTOP-ABPP ratio, P15374_C95: 500 μM, invitro
T3 sequence (P15374 1-230): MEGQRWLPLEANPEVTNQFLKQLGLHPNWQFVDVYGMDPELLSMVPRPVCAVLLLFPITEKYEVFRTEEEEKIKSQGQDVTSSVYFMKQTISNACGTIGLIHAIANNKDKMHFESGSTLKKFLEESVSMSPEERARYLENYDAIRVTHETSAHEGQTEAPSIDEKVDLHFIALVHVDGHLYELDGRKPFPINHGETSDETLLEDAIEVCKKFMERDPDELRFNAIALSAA

[5] = biological target: T4, ACAT1 C413 (P24752) (Homo sapiens, UniProt P24752); conditions: for isoTOP-ABPP ratio P24752_C413: 500 μM, invitro
T4 sequence (P24752 34-427): T1 sequence (P24752 34-427)

[6] = biological target: T5, ACAT1 C126 (P24752) (Homo sapiens, UniProt P24752)
T5 sequence (P24752 34-427): T1 sequence (P24752 34-427)

[7] = biological target: T6, PCK2 C306 (Q16822) (Homo sapiens, UniProt Q16822); conditions: for isoTOP-ABPP ratio, Q16822_C306: 500 μM, invitro
T6 sequence (Q16822 33-640): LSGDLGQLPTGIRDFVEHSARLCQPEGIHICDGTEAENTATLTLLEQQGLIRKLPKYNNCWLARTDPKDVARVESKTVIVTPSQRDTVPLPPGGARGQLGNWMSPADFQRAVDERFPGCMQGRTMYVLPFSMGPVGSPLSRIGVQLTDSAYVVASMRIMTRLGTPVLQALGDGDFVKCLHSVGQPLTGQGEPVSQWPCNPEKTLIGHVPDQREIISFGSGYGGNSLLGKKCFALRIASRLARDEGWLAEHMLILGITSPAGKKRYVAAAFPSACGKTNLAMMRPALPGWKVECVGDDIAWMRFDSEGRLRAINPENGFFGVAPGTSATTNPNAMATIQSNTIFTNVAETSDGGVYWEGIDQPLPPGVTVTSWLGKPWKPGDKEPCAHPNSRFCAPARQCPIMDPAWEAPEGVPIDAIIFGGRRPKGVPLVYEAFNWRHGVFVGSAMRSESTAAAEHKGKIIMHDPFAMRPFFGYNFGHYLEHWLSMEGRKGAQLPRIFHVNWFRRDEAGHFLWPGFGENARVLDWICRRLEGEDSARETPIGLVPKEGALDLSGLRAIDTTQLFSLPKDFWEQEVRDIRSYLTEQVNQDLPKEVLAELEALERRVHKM

In the case of `CC(Br)C(=O)Nc1cc(C(F)(F)F)cc(C(F)(F)F)c1` (stereo not drawn) [compound 24], the “isoTOP-ABPP ratio (reactivity profile), P24752_C196” value ([1]; 500 μm in-vitro ramos) is reported as 1.1, the “isoTOP-ABPP ratio (reactivity profile), Q16763_C118” value (shortened to “isoTOP-ABPP ratio … Q16763_C118”) [2] is reported as 1.2 and the “isoTOP-ABPP ratio (reactivity profile), Q8TAQ2_C145” value [3] is reported as 5.4. For the same molecule, the “isoTOP-ABPP ratio (reactivity profile), P15374_C95” value [4] was 1.1, the “isoTOP-ABPP ratio (reactivity profile), P24752_C413” value ([5]; 500 μm in-vitro ramos) was 1.2 and the “isoTOP-ABPP ratio (reactivity profile), P24752_C126” value ([6]; 500 μm in-vitro ramos) was 1.1.
With `O=C(CCl)N1CCOCC1` [compound 22] the “isoTOP-ABPP ratio (reactivity profile), P24752_C196” value ([1]; 500 μm in-vitro ramos) was 0.7, the “isoTOP-ABPP ratio (reactivity profile), P24752_C196” value ([1]; 500 μm in-vitro ramos_231) was 1.4 and the “isoTOP-ABPP ratio … Q16763_C118” value [2] was 0.9. The “isoTOP-ABPP ratio (reactivity profile), Q8TAQ2_C145” value [3] was 1.2, the “isoTOP-ABPP ratio (reactivity profile), P15374_C95” value [4] was 0.7 and the “isoTOP-ABPP ratio (reactivity profile), P24752_C413” value ([5]; 500 μm in-vitro ramos) was 1.1. For the same molecule, the “isoTOP-ABPP ratio (reactivity profile), P24752_C413” value ([5]; 500 μm in-vitro ramos_231) was 1.1, the “isoTOP-ABPP ratio (reactivity profile), P24752_C126” value ([6]; 500 μm in-vitro ramos) was 1.7 and the “isoTOP-ABPP ratio (reactivity profile), P24752_C126” value ([6]; 500 μm in-vitro ramos_231) was 2.4.
`C=CC(=O)N1CCC(Cc2ccccc2)CC1` [compound 53] was tested, and the “isoTOP-ABPP reactivity profile ratio, P24752_C196” value ([1]; in-vitro_ramos) was 0.9, the “isoTOP-ABPP reactivity profile ratio, P24752_C196” value ([1]; in-vitro_ramos_231) was 1.2 and the “isoTOP-ABPP reactivity profile ratio, Q16763_C118” value ([2]; in-vitro_ramos) was 0.8. The “isoTOP-ABPP reactivity profile ratio, Q16763_C118” value ([2]; in-vitro_ramos_231) was 1.0, the “isoTOP-ABPP reactivity profile ratio, Q16822_C306” value ([7]; 500 μm, in-vitro_ramos_231) was 1.3 and the “isoTOP-ABPP reactivity profile ratio, Q8TAQ2_C145” value ([3]; 500 μm, in-vitro_ramos) was 1.2. The “isoTOP-ABPP reactivity profile ratio, P15374_C95” value ([4]; 500 μm, in-vitro_ramos) was 0.7 and the “isoTOP-ABPP reactivity profile ratio, P24752_C413” value ([5]; 500 μm, in-vitro_ramos_231) was 1.0.
With `O=C(/C=C/c1ccccc1)Nc1cc(C(F)(F)F)cc(C(F)(F)F)c1` [compound 26] the “isoTOP-ABPP ratio (reactivity profile), P24752_C196” value ([1]; 500 μm in-vitro ramos) was 1.0, the “isoTOP-ABPP ratio … Q16763_C118” value [2] was 0.9 and the “isoTOP-ABPP ratio (reactivity profile), Q8TAQ2_C145” value [3] was 0.9. For the same molecule, the “isoTOP-ABPP ratio (reactivity profile), P15374_C95” value [4] was 0.8, the “isoTOP-ABPP ratio (reactivity profile), P24752_C413” value ([5]; 500 μm in-vitro ramos) was 0.9 and the “isoTOP-ABPP ratio (reactivity profile), P24752_C126” value ([6]; 500 μm in-vitro ramos) was 0.9.
For `Cn1cc(S(=O)(=O)N2CCOCC2)cc1C(=O)NC(=O)CCl` [compound 11], the “isoTOP-ABPP ratio, P24752_C196” value [1]; 231 was 1.5, the “isoTOP-ABPP ratio, P24752_C196” value ([1]; ramos) was 1.3 and the “isoTOP-ABPP ratio, Q16822_C306” value [7]; 231 was 3.2. The “isoTOP-ABPP ratio, Q16822_C306” value ([7]; ramos) was 1.2, the “isoTOP-ABPP ratio Q8TAQ2_C145” value ([3]; 500 μM, invitro, 231) was 20.0 and the “isoTOP-ABPP ratio, P15374_C95” value [4]; 231 was 0.8. For the same molecule, the “isoTOP-ABPP ratio, P15374_C95” value ([4]; ramos) was 0.8, the “isoTOP-ABPP ratio P24752_C413” value [5]; 231 was 1.9 and the “isoTOP-ABPP ratio P24752_C413” value ([5]; ramos) was 1.7. The “isoTOP-ABPP ratio, P24752_C126” value ([6]; 500 μM, invitro, 231) was 1.5.
